Laboratory results reported in patent US9790221B2, “Heteroaryl compounds as IRAK inhibitors and uses thereof” (Merck Patent GmbH, priority 2014, dated 2017).
Where two headings read alike, the source gives them in different places.

How the values were obtained:
IRAK4 = IRAK4 (Homo sapiens (Human), UniProt Q9NWZ3); experiment: IRAK4 enzymatic assay; assay type: biochemical
In short: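 Radiometric streptavidin FlashPlate read: 3 h, 30° C incubation of His-TEV-IRAK4 (20 ng/well), STK1-biotin substrate (300 nM) and ATP (2 μM, [^33P]-labelled) in Hepes pH 7.0, MgCl2 10 mM, MnCl2 5 mM. Compounds from 20 µM down to 1 nM, 2% DMSO controls; reaction quenched with EDTA.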

[1] = molecular target: IRAK1 (His-TEV-IRAK1 (194-712)) (Homo sapiens (Human), UniProt P51617); experiment: IRAK1 enzymatic assay; assay type: biochemical
Chain of IRAK1 (His-TEV-IRAK1 (194-712)) (P51617 194-712): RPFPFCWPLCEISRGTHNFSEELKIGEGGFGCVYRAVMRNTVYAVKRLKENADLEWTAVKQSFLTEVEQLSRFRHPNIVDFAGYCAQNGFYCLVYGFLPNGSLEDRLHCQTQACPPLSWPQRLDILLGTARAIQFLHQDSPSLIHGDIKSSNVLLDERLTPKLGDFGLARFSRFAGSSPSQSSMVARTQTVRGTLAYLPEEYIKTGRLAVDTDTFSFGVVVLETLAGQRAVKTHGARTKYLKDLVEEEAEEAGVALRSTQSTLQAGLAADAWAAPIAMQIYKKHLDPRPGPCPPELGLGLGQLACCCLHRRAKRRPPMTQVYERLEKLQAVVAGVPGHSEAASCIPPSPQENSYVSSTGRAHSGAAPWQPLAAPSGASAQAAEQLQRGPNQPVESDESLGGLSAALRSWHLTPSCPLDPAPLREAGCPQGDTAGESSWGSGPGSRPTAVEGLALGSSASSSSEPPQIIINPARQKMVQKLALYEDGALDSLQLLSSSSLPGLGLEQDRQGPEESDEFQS
In short: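 Compounds ([…] down to 1 nM) were incubated 3 h at 30° C with His-TEV-IRAK1 (194-712, 15 ng/well) and 1 μM [33P]-labelled ATP in 50 mM Hepes pH 7.0, 10 mM MgCl2. After EDTA stop and washing, the retained autophosphorylation signal was measured by scintillation in streptavidin-coated plates.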

[2] = system: TLR7 induced IL-6 secretion in human mononuclear cells (PBMC's); experiment: TLR7 induced IL-6 in human PBMC's; assay type: cell-based; conditions: read-out: TLR7 induced IL-6 secretion in hPBMC's (IC50)
In short: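 Fresh or frozen healthy-donor PBMCs preincubated 30 min at 37° C. with compound (25 uM to 0.4 nM; vehicle 0.25% DMSO) in RPMI/10% HI-FBS. Stimulated with TLR7 ligand (2 uM) for 16-18 h at 37° C.; supernatant IL-6 measured by AlphaLISA.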

Chain of IRAK4 (Q9NWZ3 whole entry): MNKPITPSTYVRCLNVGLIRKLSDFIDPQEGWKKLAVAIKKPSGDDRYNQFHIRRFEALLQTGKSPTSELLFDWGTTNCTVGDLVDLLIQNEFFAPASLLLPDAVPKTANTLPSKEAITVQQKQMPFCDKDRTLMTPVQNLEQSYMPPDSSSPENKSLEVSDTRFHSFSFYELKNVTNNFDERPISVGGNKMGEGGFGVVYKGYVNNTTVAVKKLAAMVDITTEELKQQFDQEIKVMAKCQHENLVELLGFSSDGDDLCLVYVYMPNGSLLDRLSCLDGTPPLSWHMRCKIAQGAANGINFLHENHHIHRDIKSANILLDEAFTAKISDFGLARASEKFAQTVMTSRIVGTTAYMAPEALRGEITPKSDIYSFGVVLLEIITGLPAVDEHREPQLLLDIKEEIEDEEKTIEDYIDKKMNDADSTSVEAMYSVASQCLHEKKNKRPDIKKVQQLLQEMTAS

Row | SMILES | IC50 (IRAK4) | IC50 [1] | IC50 ([2]; Homo sapiens, PBMC) | IC50 [2]
1 | Cn1cc(-c2cccc(-c3ncc(-c4cnn(C)c4)c(N[C@H]4CC[C@@H](N5CCOCC5)CC4)n3)c2)cn1 [Example 233] | < 100 nM | 100 to 1000 nM | 100 to 1000 nM | –
2 | Cn1cc(-c2cccc(-c3ncc(-c4cnn(C)c4)c(N4CCC(N)CC4)n3)c2)cn1 [Example 239] | 100 to 1000 nM | 100 to 1000 nM | 100 to 1000 nM | –
3 | Cc1nnc(-c2cnc(-c3cccc(-c4cnn(C)c4)c3)nc2NC2CCS(=O)(=O)CC2)s1 [Example 243] | < 100 nM | 1000 to 5000 nM | 100 to 1000 nM | –
4 | Cc1nnc(-c2cnc(-c3cccc(-c4cnn(C)c4)c3)nc2NC2CCCN(S(C)(=O)=O)CC2)s1 (stereo not drawn) [Example 253] | < 100 nM | < 100 nM | 100 to 1000 nM | –
5 | Cc1nnc(-c2cnc(-c3cccc(-c4cnn(C)c4)c3)nc2N[C@H]2CC[C@H](NS(C)(=O)=O)CC2)s1 [Example 254] | < 100 nM | < 100 nM | < 100 nM | –
6 | CC(=O)NC1(CNc2nc(-c3cccc(-c4cnn(C)c4)c3)ncc2-c2cnn(C)c2)CCCCC1 [Example 256] | < 100 nM | 1000 to 5000 nM | 1000 to 5000 nM | –
7 | Cn1cc(-c2cccc(-c3ncc(-c4cnn(C)c4)c(NC4CCS(=O)(=O)CC4)n3)c2)cn1 [Example 257] | < 100 nM | 100 to 1000 nM | 1000 to 5000 nM | –
8 | Cn1cc(-c2cccc(-c3ncc(-c4cnn(C)c4)c(NCC4(NS(C)(=O)=O)CCCCC4)n3)c2)cn1 [Example 262] | < 100 nM | 100 to 1000 nM | 1000 to 5000 nM | –
9 | Cn1cc(-c2cccc(-c3ncc(-c4cnn(C)c4)c(N4CCC(CNS(C)(=O)=O)C4)n3)c2)cn1 (stereo not drawn) [Example 265] | < 100 nM | 100 to 1000 nM | > 5000 nM | –
10 | Cn1cc(-c2cccc(-c3ncc(-c4cnn(C)c4)c(NCCNS(C)(=O)=O)n3)c2)cn1 [Example 267] | < 100 nM | 100 to 1000 nM | 100 to 1000 nM | –
11 | Cn1cc(-c2cccc(-c3ncc(-c4cnn(C)c4)c(NCC(F)(F)C(F)(F)C(F)(F)F)n3)c2)cn1 [Example 272] | < 100 nM | 100 to 1000 nM | – | 1000 to 5000 nM
12 | Cn1cc(-c2cccc(-c3ncc(-c4cnn(C)c4)c(NCC(O)C(F)(F)F)n3)c2)cn1 (stereo not drawn) [Example 275] | < 100 nM | 100 to 1000 nM | 100 to 1000 nM | –
13 | Cn1cc(-c2cccc(-c3ncc(-c4cnn(C)c4)c(N[C@H]4CC[C@H](NS(=O)(=O)C5CC5)CC4)n3)c2)cn1 [Example 276] | < 100 nM | < 100 nM | 100 to 1000 nM | –
14 | Cn1cc(-c2cccc(-c3ncc(-c4cnn(C)c4)c(N[C@H]4CC[C@H](C(=O)O)CC4)n3)c2)cn1 [Example 279] | 100 to 1000 nM | > 5000 nM | > 5000 nM | –
15 | Cn1cc(-c2cccc(-c3ncc(-c4cnn(C)c4)c(N4CC[C@H](F)[C@@H](O)C4)n3)c2)cn1 [Example 280] | < 100 nM | 100 to 1000 nM | 1000 to 5000 nM | –
16 | Cn1cc(-c2cccc(-c3ncc(-c4cnn(C)c4)c(NCCCS(C)(=N)=O)n3)c2)cn1 (stereo not drawn) [Example 282] | 100 to 1000 nM | 1000 to 5000 nM | > 5000 nM | –
17 | Cn1cc(-c2cccc(-c3ncc(-c4cnn(C)c4)c(N4C[C@H](N)CC(F)(F)C4)n3)c2)cn1 [Example 283, (R)-5,5-Difluoro-1-{5-(1-methyl-1H-pyrazol-4-yl)-2-[3-(1-methyl-1H-pyrazol-4-yl)-phenyl]-pyrimidin-4-yl}-piperidin-3-ylamine] | 1000 to 5000 nM | 1000 to 5000 nM | 1000 to 5000 nM | –
18 | Cn1cc(-c2cccc(-c3ncc(-c4cnn(C)c4)c(N4C[C@@H](N)CC(F)(F)C4)n3)c2)cn1 [Example 284, (S)-5,5-Difluoro-1-{5-(1-methyl-1H-pyrazol-4-yl)-2-[3-(1-methyl-1H-pyrazol-4-yl)-phenyl]-pyrimidin-4-yl}-piperidin-3-ylamine] | < 100 nM | 1000 to 5000 nM | 100 to 1000 nM | –
19 | Cn1cc(-c2cccc(-c3ncc(-c4cnn(C)c4)c(N[C@@H]4CCCC(F)(F)[C@H]4O)n3)c2)cn1 [Example 287, (1S,6R)-2,2-Difluoro-6-{5-(1-methyl-1H-pyrazol-4-yl)-2-[3-(1-methyl-1H-pyrazol-4-yl)-phenyl]-pyrimidin-4-ylamino}-cyclohexanol] | < 100 nM | 100 to 1000 nM | 1000 to 5000 nM | –
20 | Cn1cc(-c2cccc(-c3ncc(-c4cnn(C)c4)c(N[C@H]4CCCC[C@@H](O)[C@H]4O)n3)c2)cn1 [Example 288, (1R,2S,3S)-3-{5-(1-Methyl-1H-pyrazol-4-yl)-2-[3-(1-methyl-1H-pyrazol-4-yl)-phenyl]-pyrimidin-4-ylamino}-cycloheptane-1,2-diol] | < 100 nM | < 100 nM | – | < 100 nM
21 | Cn1cc(-c2cccc(-c3ncc(-c4cnn(C)c4)c(N[C@@H]4CCCC[C@H](O)[C@@H]4O)n3)c2)cn1 [Example 289, (1S,2R,3R)-3-{5-(1-Methyl-1H-pyrazol-4-yl)-2-[3-(1-methyl-1H-pyrazol-4-yl)-phenyl]-pyrimidin-4-ylamino}-cycloheptane-1,2-diol] | < 100 nM | > 5000 nM | 100 to 1000 nM | –

Further lines, with some results ahead:

Row | IC50 (IRAK4) | IC50 [1] | SMILES | IC50 ([2]; Homo sapiens, PBMC) | IC50 [2]
22 | < 100 nM | 100 to 1000 nM | Cn1cc(-c2cccc(-c3ncc(-c4cnn(C)c4)c(NC4CCCC4O)n3)c2)cn1 (stereo not drawn) [Example 238] | 100 to 1000 nM | –
23 | < 100 nM | 100 to 1000 nM | Cn1cc(-c2cccc(-c3ncc(-c4cnn(C)c4)c(NC45CC(CN)(C4)C5)n3)c2)cn1 [Example 242] | 100 to 1000 nM | –
24 | < 100 nM | 100 to 1000 nM | Cn1cc(-c2cccc(-c3ncc(-c4cnn(C)c4)c(NC4CCCCC4O)n3)c2)cn1 (stereo not drawn) [Example 244] | 100 to 1000 nM | –
25 | < 100 nM | < 100 nM | Cn1cc(-c2cccc(-c3ncc(-c4cnn(C)c4)c(NC45CC(CNS(C)(=O)=O)(C4)C5)n3)c2)cn1 [Example 245] | 100 to 1000 nM | –
26 | 100 to 1000 nM | 100 to 1000 nM | CC(C)Nc1nc(-c2cccc(-c3cnn(C)c3)c2)ncc1-c1cnn(C)c1 [Example 260] | 1000 to 5000 nM | –
27 | < 100 nM | < 100 nM | CC(=O)NC12CC(Nc3nc(-c4cccc(-c5cnn(C)c5)c4)ncc3-c3cnn(C)c3)(C1)C2 [Example 266] | 100 to 1000 nM | –
28 | < 100 nM | < 100 nM | Cn1cc(-c2cccc(-c3ncc(-c4cnn(C)c4)c(N[C@H]4CCC[C@@H](O)[C@H]4O)n3)c2)cn1 [Example 268] | < 100 nM | –
29 | < 100 nM | 100 to 1000 nM | Cn1cc(-c2cccc(-c3ncc(-c4cnn(C)c4)c(NC45CC(N)(C4)C5)n3)c2)cn1 [Example 269] | 100 to 1000 nM | –
30 | < 100 nM | < 100 nM | Cn1cc(-c2cccc(-c3ncc(-c4cnn(C)c4)c(NC45CC(NS(C)(=O)=O)(C4)C5)n3)c2)cn1 [Example 270] | < 100 nM | –
31 | < 100 nM | 100 to 1000 nM | Cn1cc(-c2cccc(-c3ncc(-c4cnn(C)c4)c(NCC(F)(F)F)n3)c2)cn1 [Example 271] | 1000 to 5000 nM | –
32 | < 100 nM | 100 to 1000 nM | Cn1cc(-c2cccc(-c3ncc(-c4cnn(C)c4)c(N[C@H]4CC[C@H](O)[C@@H]4O)n3)c2)cn1 [Example 273] | 100 to 1000 nM | –
33 | < 100 nM | < 100 nM | Cn1cc(-c2cccc(-c3ncc(-c4cnn(C)c4)c(NCCS(N)(=O)=O)n3)c2)cn1 [Example 278] | 100 to 1000 nM | –
